In US20240368122A1, “JAK2 INHIBITORS AND METHODS OF USE THEREOF” (RELAY THERAPEUTICS, INC., priority 2021, published 2024):
Like-named read-outs stand apart in the source and are kept apart here.

How the values were obtained:
[1] = tested on: TF1 JAK2 V617F STAT5 reporter; assay: Cellular TF1 STAT5 assay (luciferase reporter), JAK2 V617F; type: cell-based; details: read-out: Cell PD TF1 V617F STAT5 (IC50)
Protocol: (§1) Selected compounds of the present disclosure were tested in a Cellular TF1 STAT3 or STAT5 assay, to measure the degree of JAK2-mediated STAT3 or STAT5 phosphorylation, respectively. TF1 cells (immortalized erythroleukemia line) expressing either wildtype or V617F mutant JAK2 with a luciferase reporter were used.
(§2) Cell culture: Cells were put into antibiotic selection (1 ug/ml puro+500 ug/ml Geneticin) when first thawed then maintained in growth media without antibiotics. Cells were maintained in exponential growth phase, between 0.02-1 E6 cells/ml.
(§3) Compound preparation: Compounds were screened as 10-point dose response curves 1:3 dilutions. DMSO is used as the vehicle control. All wells were normalized to the same final DMSO concentration. Compounds were pre-spotted onto 384 well plates using an Echo acoustic dispenser, 50 nL of 1000× (10 mM top concentration) DMSO stock/well. Each compound is run in triplicate plates.
(§4) Cell plating: Cells were counted using Vi-Cell XR, then cells were spun down and resuspended in growth media to 200,000 cells/ml. Cells were added to plates containing compound. 10,000 cells/well in 50 ul volume using a Biomek liquid handler. Plates were briefly mixed on a shaker for 1 minute at 2500 rpm then placed in a 37° C., 5% CO2 incubator overnight for 18-20 hrs.
(§5) Measuring luciferase activity: ONE-glo reagent was brought to room temperature, and 25 μL of ONE-glo assay reagent was added to each well using Biomek liquid handler. The plates were incubated for 10 minutes at room temperature, then luminescence was measured on an Envision plate reader.

[2] = tested on: TF1 JAK2 V617F STAT3 reporter; assay: Cellular TF1 STAT3 assay (luciferase reporter), JAK2 V617F; type: cell-based; details: read-out: Cell PD-TF1 JAK2 V617F STAT3 (IC50)
Protocol: as §1, §2, §3, §4, §5

[3] = molecular target: T1, JAK2 JH2 WT (V536-D812) [W659A, W777A, F794H solubilizing mutations] (Homo sapiens, UniProt O60674, F794H/W659A/W777A); assay: Surface Plasmon Resonance (SPR) binding assay, JAK2 JH2 domain
T1 construct: **JAK2 JH2 WT (V536-D812) [W659A, W777A, F794H solubilizing mutations]; C-thrombin-avi-His6; thrombin cleavage site (C); His6 (C); purchased Biortus
Protocol: Selected compounds of the present disclosure were tested in a Surface Plasmon Resonance (SPR) Assay to measure their binding kinetics and affinity for proteins of interest.
Prepare buffer: 50 mM HEPES pH 7.5, 150 mM NaCl, 0.05% (v/v) Tween, and 10% (v/v) glycerol were combined and pH was adjusted to 7.5, then filtered. 5 mM DTT, was added, and buffer without DMSO was reserved for compound resuspension. 2% (v/v) DMSO was added for assay buffer, and separately 1% DMSO was used to make buffer for resuspending compounds.
Prepare compounds: Using a Bravo liquid handler, 99 μL of 1% (v/v) DMSO assay buffer was added to 1 μL compounds in DMSO.
Run 8K Method: Biotin CAPture (CAP) chip surface was regenerated prior to run by: Inserting CAP chip into Biacore 8K, prime machine with assay buffer with 2% (v/v) DMSO; Setting instrument temperature to 20° C.; Conditioning surface with NaOH/GdnHCl reagents from CAP chip kit (60 seconds, 10 μL/min); and Capturing oligo-Streptavidin (SA) reagent from CAP kit (600 seconds, 1 μL/min), expected capture ˜2500 RU. JAK2 JH1 or JH2 protein was immobilized by preparing a sample of 0.5 uM JH1 or 0.4 uM JH2 protein diluted in assay buffer without DMSO and supplemented with 10 uM of a selected compound of the invention as a stabilizer (370 seconds, 5 uL/min), expected capture ˜1000 RU. Remaining biotin sites on SA were blocked with 1 uM biotin (30 seconds, 20 uL/min), then equilibrated for 1800 seconds at 100 uL/min. Compounds being assayed were run in single cycle kinetics: 4 doses with a top concentration of 5 uM (JH1) or 500 nM (JH2), dilution factor of 3, at 20° C., for a contact time of 60 seconds, and a dissociation time of 300 seconds (JH1) or 1200 seconds (JH2), at a flow rate of 30 uL/min. The surface was completely regenerated after each compound is run, and JH1 or JH2 protein was immobilized fresh prior to each new compound. Data were fitted kinetically with 1:1 binding model using Biacore Insight Evaluation Software.

[4] = Homo sapiens, TF-1, TF1 cells, JAK2 V617F

T1 sequence (O60674 536-812 W659A/W777A/F794H): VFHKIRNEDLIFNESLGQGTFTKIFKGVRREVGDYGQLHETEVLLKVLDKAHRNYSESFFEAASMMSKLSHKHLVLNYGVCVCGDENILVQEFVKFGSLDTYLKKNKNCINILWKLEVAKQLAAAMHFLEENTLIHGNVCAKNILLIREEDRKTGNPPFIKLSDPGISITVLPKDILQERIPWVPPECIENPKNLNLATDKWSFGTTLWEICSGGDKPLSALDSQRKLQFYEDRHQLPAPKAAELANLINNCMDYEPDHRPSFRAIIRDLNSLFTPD

IC50 ([1]; TF1 JAK2 V617F) [µM] | IC50 ([2]; TF1 JAK2 V617F) [µM] | Kd ([3]; SPR, JAK2 JH2 domain) [nM] | IC50 [1, 4] [µM] | IC50 [2, 4] [µM] | Kd [3] [nM] | SMILES
0.5 to 5 | 0.5 to 5 | 0.01 to 10 |  |  |  | CNC(=O)c1nnc(NC(=O)C2CC2)cc1Nc1cccc(-c2ccc(C(=O)N(C)[C@@H](C)c3ccn(C)n3)nc2)c1OC (single isomer, unassigned) [Compound 160]
0.5 to 5 | 0.5 to 5 | 0.01 to 10 |  |  |  | CNC(=O)c1nnc(NC(=O)C2CC2)cc1Nc1cccc(-c2ccc(C(=O)N(C)[C@H](C)c3ccn(C)n3)nc2)c1OC (single isomer, unassigned) [Compound 161]
0.5 to 5 | 0.05 to 0.5 | 0.01 to 10 |  |  |  | CNC(=O)c1nnc(NC(=O)C2CC2)cc1Nc1cccc(-c2cnn(C3CN([C@@H](C)c4ccccn4)C3)c2)c1OC (single isomer, unassigned) [Compound 162]
5 to 100 | 0.5 to 5 | 0.01 to 10 |  |  |  | CNC(=O)c1nnc(NC(=O)C2CC2)cc1Nc1cccc(-c2cnn(C3CN([C@H](C)c4ccccn4)C3)c2)c1OC (single isomer, unassigned) [Compound 163]
0.5 to 5 | 0.5 to 5 | 0.01 to 10 |  |  |  | CNC(=O)c1nnc(NC(=O)C2CC2)cc1Nc1cccc(-c2ccc(C(=O)N(C)[C@H](C)c3cc(C#N)ccn3)nc2)c1OC (single isomer, unassigned) [Compound 181]
0.05 to 0.5 | 0.05 to 0.5 | 0.01 to 10 |  |  |  | CNC(=O)c1nnc(NC(=O)C2CC2)cc1Nc1cccc(-c2ccc(C(=O)N(C)CC3=NO[C@@H]4CCCC[C@H]34)nc2)c1OC (single isomer, unassigned) [Compound 193]
0.5 to 5 | 0.5 to 5 | 0.01 to 10 |  |  |  | CNC(=O)c1nnc(NC(=O)C2CC2)cc1Nc1cccc(-c2ccc(C(=O)N(C)CC3=NO[C@H]4CCCC[C@@H]34)nc2)c1OC (single isomer, unassigned) [Compound 194]
 |  |  | 5 to 100 | 5 to 100 | 10 to 50 | CNC(=O)c1nnc(NC(=O)C2CC2)cc1Nc1cccc(-c2ccc(C(=O)N(C)C[C@H]3CCCC3(F)F)cc2)c1OC (single isomer, unassigned) [Compound 206]
 |  |  | 5 to 100 | 5 to 100 | 0.01 to 10 | CNC(=O)c1nnc(NC(=O)C2CC2)cc1Nc1cccc(-c2ccc(C(=O)N(C)C[C@H]3CCS(=O)(=O)C3)nc2)c1OC (single isomer, unassigned) [Compound 207]
 |  |  | 5 to 100 | 5 to 100 | 0.01 to 10 | CNC(=O)c1nnc(NC(=O)C2CC2)cc1Nc1cccc(-c2ccc(C(=O)N(C)C[C@@H]3CCCC3(F)F)cc2)c1OC (single isomer, unassigned) [Compound 208]
 |  |  | 5 to 100 | 5 to 100 | 10 to 50 | CNC(=O)c1nnc(NC(=O)C2CC2)cc1Nc1cccc(-c2ccc(C(=O)N(C)C[C@@H]3CCS(=O)(=O)C3)nc2)c1OC (single isomer, unassigned) [Compound 209]
 |  |  | 5 to 100 | 5 to 100 | 10 to 50 | CNC(=O)c1nnc(NC(=O)C2CC2)cc1Nc1cccc(-c2ccc(C(=O)N(C)C[C@@H]3CCCC3(F)F)nc2)c1OC (single isomer, unassigned) [Compound 225]
 |  |  | 5 to 100 | 5 to 100 | 10 to 50 | CNC(=O)c1nnc(NC(=O)C2CC2)cc1Nc1cccc(-c2ccc(C(=O)N(C)C[C@H]3CCCC3(F)F)nc2)c1OC (single isomer, unassigned) [Compound 226]
 |  |  | 5 to 100 | 5 to 100 | 50 to 500 | CNC(=O)c1nnc(NC(=O)C2CC2)cc1Nc1cccc(C(=O)N[C@@H](C)C2CN(Cc3ccccn3)C2)c1OC (single isomer, unassigned) [Compound 245]
 |  |  | 5 to 100 | 5 to 100 | 50 to 500 | CNC(=O)c1nnc(NC(=O)C2CC2)cc1Nc1cccc(C(=O)N[C@H](C)C2CN(Cc3ccccn3)C2)c1OC (single isomer, unassigned) [Compound 246]
 |  |  | 0.5 to 5 | 0.5 to 5 | 0.01 to 10 | CNC(=O)c1nnc(NC(=O)C2CC2)cc1Nc1cccc(-c2cnn(C3CN([C@H](C)c4cccc(C#N)n4)C3)c2)c1OC (single isomer, unassigned) [Compound 283]
 |  |  | 0.05 to 0.5 | 0.05 to 0.5 | 0.01 to 10 | CNC(=O)c1nnc(NC(=O)C2CC2)cc1Nc1cccc(-c2cnn(C3CN([C@@H](C)c4cccc(C#N)n4)C3)c2)c1OC (single isomer, unassigned) [Compound 286]
 |  |  | 0.5 to 5 | 0.5 to 5 | 0.01 to 10 | CNC(=O)c1nnc(NC(=O)C2CC2)cc1Nc1cccc(-c2cnn([C@@H]3CCN(Cc4cccc(C#N)n4)C3)c2)c1OC (single isomer, unassigned) [Compound 318]
 |  |  | 0.5 to 5 | 0.5 to 5 | 0.01 to 10 | CNC(=O)c1nnc(NC(=O)C2CC2)cc1Nc1cccc(-c2cnn([C@H]3CCN(Cc4ccccn4)C3)c2)c1OC (single isomer, unassigned) [Compound 333]
 |  |  | 0.5 to 5 | 0.5 to 5 | 0.01 to 10 | CNC(=O)c1nnc(NC(=O)C2CC2)cc1Nc1cccc(-c2cnn([C@@H]3CCN(Cc4ccccn4)C3)c2)c1OC (single isomer, unassigned) [Compound 334]
 |  |  | 0.5 to 5 | 0.5 to 5 | 0.01 to 10 | CNC(=O)c1nnc(NC(=O)C2CC2)cc1Nc1cccc(-c2cnn([C@H]3C[C@H]([C@@H](OC)c4ccccn4)C3)c2)c1OC (single isomer, unassigned) [Compound 346]
 |  |  | 0.5 to 5 | 0.5 to 5 | 10 to 50 | CNC(=O)c1nnc(NC(=O)C2CC2)cc1Nc1cccc(-c2cnn([C@H]3C[C@@H]([C@H](OC)c4ccccn4)C3)c2)c1OC (single isomer, unassigned) [Compound 350]
 |  | 0.01 to 10 | 0.5 to 5 | 0.5 to 5 |  | CNC(=O)c1nnc(NC(=O)C2CC2)cc1Nc1cccc(-c2cnn([C@H]3C[C@H]([C@@H](O)c4ccccn4)C3)c2)c1OC (single isomer, unassigned) [Compound 396]
 |  | 0.01 to 10 | 5 to 100 | 0.5 to 5 |  | CNC(=O)c1nnc(NC(=O)C2CC2)cc1Nc1cccc(-c2cnn([C@H]3C[C@H]([C@H](O)c4ccccn4)C3)c2)c1OC (single isomer, unassigned) [Compound 397]
 |  | 0.01 to 10 | 0.5 to 5 | 0.5 to 5 |  | CNC(=O)c1nnc(NC(=O)C2CC2)cc1Nc1cccc(-c2cnn([C@H]3C[C@@H]([C@@H](O)c4ccccn4)C3)c2)c1OC (single isomer, unassigned) [Compound 398]
 |  | 0.01 to 10 | 0.05 to 0.5 | 0.5 to 5 |  | CNC(=O)c1nnc(NC(=O)C2CC2)cc1Nc1cccc(-c2cnn([C@H]3C[C@@H]([C@H](O)c4ccccn4)C3)c2)c1OC (single isomer, unassigned) [Compound 399]
 |  |  | 0.05 to 0.5 | 0.05 to 0.5 | 0.01 to 10 | CNC(=O)c1nnc(NC(=O)C2CC2)cc1Nc1cccc(-c2cn([C@H]3CN(Cc4cccc(C#N)n4)[C@@H]3C)nn2)c1OC (stereo in doubt) [Compound 234]
